# Data: patent publication US20240016781A1, “TREATMENT OF KRAS MUTANT CANCERS” (MEI Pharma, Inc., priority 2020, published 2024)
# Where two headings read alike, the source gives them in different places.
# Legend:
# Assay in all cases: 72-hour CellTiter-Glo 2.0 growth inhibition screen (single agent, 9x9 combination dose matrix);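 on Best CI Level: inhibition effect level at which the best CI was calculated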
# Assay type in all cases: cell-based
# [1] = test system: HCC1171;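 on Best CI Level: inhibition effect level at which the best CI was calculated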
# [2] = test system: SW48
# [3] = test system: HCC44;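 on Best CI Level: inhibition effect level at which the best CI was calculated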
# [4] = test system: SW48 KRAS (G12D/+);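 on Best CI Level: inhibition effect level at which the best CI was calculated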
# [5] = test system: AsPC-1;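 on Best CI Level: inhibition effect level at which the best CI was calculated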
# [6] = HCC1171 (KRAS G12C), enhancer + MEI-522 (Voruciclib), 72 h;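 on Best CI Level: inhibition effect level at which the best CI was calculated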
# [7] = HCC1171, Lung, Additional Single Agent Responses (inhibition, % I), 72 h
# [8] = HCC1171, Lung, growth inhibition (GI) curve, single agent, 72 h
# [9] = HCC1171, Lung, growth inhibition (GI), AUC, single agent, 72 h
# [10] = enhancer combined with MEI-522 (Voruciclib), HCC1171 (Lung), 72 hours, inhibition data
# [11] = SW48 (KRAS WT), enhancer + MEI-522 (Voruciclib), 72 h
# [12] = SW48, Colorectal, Additional Single Agent Responses (inhibition, % I), 72 h
# [13] = SW48, Colorectal, growth inhibition (GI), AUC, single agent, 72 h
# [14] = enhancer combined with MEI-522 (Voruciclib), SW48 (Colorectal), 72 hours, inhibition data
# [15] = HCC44 (KRAS G12C), enhancer + MEI-522 (Voruciclib), 72 h;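 on Best CI Level: inhibition effect level at which the best CI was calculated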
# [16] = HCC44, Lung, Additional Single Agent Responses (inhibition, % I), 72 h
# [17] = HCC44, Lung, growth inhibition (GI), AUC, single agent, 72 h
# [18] = enhancer combined with MEI-522 (Voruciclib), HCC44 (Lung), 72 hours, inhibition data
# [19] = SW48 KRAS (G12D/+), Colorectal, Additional Single Agent Responses (inhibition, % I), 72 h
# [20] = SW48 KRAS (G12D/+), Colorectal, growth inhibition (GI), AUC, single agent, 72 h
# [21] = SW48 KRAS (G12D/+), enhancer + MEI-522 (Voruciclib), 72 h
# [22] = enhancer combined with MEI-522 (Voruciclib), SW48 KRAS (G12D/+) (Colorectal), 72 hours, inhibition data
# [23] = AsPC-1 (KRAS G12D), enhancer + MEI-522 (Voruciclib), 72 h;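 on Best CI Level: inhibition effect level at which the best CI was calculated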
# [24] = AsPC-1, Pancreas, Additional Single Agent Responses (inhibition, % I), 72 h
# [25] = AsPC-1, Pancreas, growth inhibition (GI), AUC, single agent, 72 h
# [26] = enhancer combined with MEI-522 (Voruciclib), AsPC-1 (Pancreas), 72 hours, inhibition data
# [27] = SW48, Colorectal, growth inhibition (GI) curve, single agent, 72 h
# [28] = HCC44, Lung, growth inhibition (GI) curve, single agent, 72 h
# [29] = AsPC-1, Pancreas, growth inhibition (GI) curve, single agent, 72 h
structure (smiles),measurement,setting,value
C=CC(=O)N1CCN(c2nc(=O)n(-c3c(C)ccnc3C(C)C)c3nc(-c4c(O)cccc4F)c(F)cc23)[C@@H](C)C1 [AMG510],Best CI,[1]; [6],0.26
same,Bliss Volume,[1]; [6],3.26
same,HSA volume,[1]; [6],4.61
same,Loewe Volume,[1]; [6],6.02
same,Synergy Score,[1]; [6],7.42
same,EC50,[1]; [7],2.8 nM
same,Response Area,[1]; [7],1.99
same,Emax,"[1]; HCC1171, Lung, Additional Single Agent Responses, 72 h, read-out: Max Response (% I)",48%
same,GI50,[1]; [8],5.5 nM
same,Response Area,[1]; [9],3.50
same,Emax,"[1]; HCC1171, Lung, growth inhibition (GI), single agent, 72 h, read-out: Max Response (% GI)",85%
same,Best CI,[1]; [10],0.22
same,Bliss Volume,[1]; [10],−0.99
same,HSA volume,[1]; [10],2.26
same,Loewe Volume,[1]; [10],3.06
same,Synergy Score,[1]; [10],2.15
same,Best CI Level,"[1]; enhancer combined with MEI-522 (Voruciclib), HCC1171 (Lung), 72 hours, inhibition data, unit assumed",50%
same,EC50,"[2]; Homo sapiens, SW48, 72 h, SW48, Colorectal, Additional Single Agent Responses (inhibition, % I), 72 h",2710 nM
same,EC50,"[2]; Homo sapiens, SW48, 72 h, SW48, Colorectal, growth inhibition (GI) curve, single agent, 72 h",2720 nM
same,Emax,"[2]; Homo sapiens, SW48, Colorectal, Additional Single Agent Responses, 72 h, read-out: Max Response (% I)",14%
same,Emax,"[2]; Homo sapiens, SW48, Colorectal, growth inhibition (GI), single agent, 72 h, read-out: Max Response (% GI)",17%
same,Best CI,[2]; [11],0.46
same,Bliss Volume,[2]; [11],2.71
same,HSA volume,[2]; [11],0.73
same,Loewe Volume,[2]; [11],2.40
same,Synergy Score,[2]; [11],4.05
same,Response Area,[2]; [12],0.48
same,Response Area,[2]; [13],0.61
same,Best CI,[2]; [14],0.50
same,Bliss Volume,[2]; [14],1.20
same,HSA volume,[2]; [14],0.35
same,Loewe Volume,[2]; [14],1.24
same,Synergy Score,[2]; [14],1.36
same,Best CI Level,"[2]; enhancer combined with MEI-522 (Voruciclib), SW48 (Colorectal), 72 hours, inhibition data, unit assumed",35%
same,Best CI,[3]; [15],0.63
same,Bliss Volume,[3]; [15],2.46
same,HSA volume,[3]; [15],2.64
same,Loewe Volume,[3]; [15],2.30
same,Synergy Score,[3]; [15],4.36
same,Response Area,[3]; [16],1.52
same,Response Area,[3]; [17],1.97
same,EC50,"[3]; Homo sapiens, HCC44, 72 h, HCC44, Lung, Additional Single Agent Responses (inhibition, % I), 72 h",4.1 nM
same,EC50,"[3]; Homo sapiens, HCC44, 72 h, HCC44, Lung, growth inhibition (GI) curve, single agent, 72 h",4.6 nM
same,Emax,"[3]; Homo sapiens, HCC44, Lung, Additional Single Agent Responses, 72 h, read-out: Max Response (% I)",32%
same,Emax,"[3]; Homo sapiens, HCC44, Lung, growth inhibition (GI), single agent, 72 h, read-out: Max Response (% GI)",41%
same,Best CI,[3]; [18],0.67
same,Bliss Volume,[3]; [18],−0.82
same,HSA volume,[3]; [18],1.08
same,Loewe Volume,[3]; [18],0.97
same,Synergy Score,[3]; [18],1.16
same,Best CI Level,"[3]; enhancer combined with MEI-522 (Voruciclib), HCC44 (Lung), 72 hours, inhibition data, unit assumed",45%
same,Bliss Volume,[4],−0.98
same,EC50,"[4]; Homo sapiens, SW48, 72 h",3000 nM
same,Emax,"[4]; Homo sapiens, SW48, 72 h, read-out: Max Response (% GI)",15%
same,Emax,"[4]; Homo sapiens, SW48, 72 h, read-out: Max Response (% I)",11%
same,Response Area,[4]; [19],0.00
same,Response Area,[4]; [20],0.00
same,Best CI,[4]; [21],0.55
same,Bliss Volume,[4]; [21],0.17
same,Loewe Volume,[4]; [21],0.13
same,Synergy Score,[4]; [21],2.74
same,Best CI,[4]; [22],1.38
same,Loewe Volume,[4]; [22],−0.76
same,Synergy Score,[4]; [22],0.86
same,Best CI Level,"[4]; enhancer combined with MEI-522 (Voruciclib), SW48 KRAS (G12D/+) (Colorectal), 72 hours, inhibition data, unit assumed",20%
same,Best CI,[5]; [23],0.47
same,Bliss Volume,[5]; [23],2.91
same,HSA volume,[5]; [23],−3.63
same,Loewe Volume,[5]; [23],0.38
same,Synergy Score,[5]; [23],0.82
same,Response Area,[5]; [24],0.00
same,Response Area,[5]; [25],0.00
same,EC50,"[5]; Homo sapiens, ASPC1, AsPC-1, Pancreas, Additional Single Agent Responses (inhibition, % I), 72 h",3000 nM
same,Emax,"[5]; Homo sapiens, ASPC1, AsPC-1, Pancreas, Additional Single Agent Responses, 72 h, read-out: Max Response (% I)",6%
same,Emax,"[5]; Homo sapiens, ASPC1, AsPC-1, Pancreas, growth inhibition (GI), single agent, 72 h, read-out: Max Response (% GI)",8%
same,Best CI,[5]; [26],0.64
same,Best CI Level,[5]; [26],20
same,Bliss Volume,[5]; [26],1.95
same,HSA volume,[5]; [26],−2.52
same,Loewe Volume,[5]; [26],0.26
same,Synergy Score,[5]; [26],0.32
CN1CC[C@@H](c2c(O)cc(O)c3c(=O)cc(-c4ccc(C(F)(F)F)cc4Cl)oc23)[C@@H]1CO [MEI-522(Voruciclib)],EC50,[1]; [7],680 nM
same,IC50,[1]; [7],3030 nM
same,Response Area,[1]; [7],1.62
same,Max Response (% I),"[1]; HCC1171, Lung, Additional Single Agent Responses, 72 h",51 % I
same,EC50,[1]; [8],674 nM
same,GI50,[1]; [8],734 nM
same,Response Area,[1]; [9],2.84
same,Max Response (% GI),"[1]; HCC1171, Lung, growth inhibition (GI), single agent, 72 h",89 % GI
same,EC50,[2]; [12],443 nM
same,IC50,[2]; [12],526 nM
same,Response Area,[2]; [12],2.91
same,Max Response (% I),"[2]; SW48, Colorectal, Additional Single Agent Responses, 72 h",87 % I
same,EC50,[2]; [27],566 nM
same,GI50,[2]; [27],422 nM
same,Response Area,[2]; [13],4.44
same,Max Response (% GI),"[2]; SW48, Colorectal, growth inhibition (GI), single agent, 72 h",135 % GI
same,EC50,[3]; [16],770 nM
same,IC50,[3]; [16],829 nM
same,Response Area,[3]; [16],2.85
same,Max Response (% I),"[3]; HCC44, Lung, Additional Single Agent Responses, 72 h",91 % I
same,EC50,[3]; [28],1210 nM
same,GI50,[3]; [28],730 nM
same,Response Area,[3]; [17],4.97
same,Max Response (% GI),"[3]; HCC44, Lung, growth inhibition (GI), single agent, 72 h",161 % GI
same,IC50,[4]; [19],572 nM
same,Response Area,[4]; [19],2.81
same,EC50,"[4]; SW48 KRAS (G12D/+), Colorectal, Additional Single Agent Responses (inhibition, % I), 72 h, read-out: EC50",463 nM
same,Max Response (% I),"[4]; SW48 KRAS (G12D/+), Colorectal, Additional Single Agent Responses, 72 h",84 % I
same,GI50,"[4]; SW48 KRAS (G12D/+), Colorectal, growth inhibition (GI) curve, single agent, 72 h",428 nM
same,EC50,"[4]; SW48 KRAS (G12D/+), Colorectal, growth inhibition (GI) curve, single agent, 72 h, read-out: EC50",541 nM
same,Response Area,[4]; [20],4.36
same,Max Response (% GI),"[4]; SW48 KRAS (G12D/+), Colorectal, growth inhibition (GI), single agent, 72 h",139 % GI
same,EC50,[5]; [24],1330 nM
same,IC50,[5]; [24],2320 nM
same,Response Area,[5]; [24],1.96
same,Max Response (% I),"[5]; AsPC-1, Pancreas, Additional Single Agent Responses, 72 h",68 % I
same,EC50,[5]; [29],1350 nM
same,GI50,[5]; [29],1340 nM
same,Response Area,[5]; [25],2.86
same,Max Response (% GI),"[5]; AsPC-1, Pancreas, growth inhibition (GI), single agent, 72 h",99 % GI
